Measured values published in patent US9175044B2, “Derivatives of glyco-CF2-serine and glyco-CF2-threonine” (TFCHEM, priority 2010, dated 2015).

What was measured:
[1] = test system: neonatal human skin fibroblasts (Cell line: CCD-27SK); test: Preservation of neonatal skin fibroblasts under starvation conditions (Trypan blue viability assay); assay type: cell-based; details: for effect on skin fibroblasts under unfavorable conditions for growth: 5 mg/ml in starvation medium, 7 days
Experimental: • The neonatal human skin fibroblasts (Cell line: CCD-27SK, ATCC number CRL-1475) were grown with DMEM medium supplemented with Fetal Bovine Serum 10% final, antibiotics (Penicillin/Streptomycin) 1% final and Amphotericin B 0.1% final. • Fibroblasts were grown in 75 cm^2 culture flask to 80% confluence, in 37° C. and 10% CO2 incubator. The medium was changed every two days by 37° C. preheated fresh medium. Starvation Medium • This medium was composed of 45% subculture medium without Fetal Bovine Serum mixed with 55% of Phosphate Buffer Saline 1× containing EDTA (final concentration of 0.45 mM). This was referred to as serum free or starvation medium. Product Preparation • The compounds 13(b)αd1 and 13(b)αd2 (M=479.9 g/mol) were diluted in starvation medium to 5 mg/ml final and pH was adjusted at 7.4 by addition of NaOH 1N. […] So, only the dead cells are blue at microscopic observation. • For sampling, 110 μl of Trypan Blue (SIGMA T8154) was added to 110 μl of trypsinated cell suspension of matching well for counting. • 200 μl of the trypan blue/cell mixture are dropped to a hemacytometer. Cells are counting by using a Neubauer-counting chamber. The unstained (viable) and stained (nonviable) cells are counted separately on 9 area of a large square (1 mm^2) and added to obtain the total number of cells per sample. An average of three counts was used to calculate the viability percentage as: [number of viable cells/total number of cells]*100 • The cell viability percentages from cultures under starvation conditions were compared with control culture for several days after their addition (D0, D3, D4, D5, D6, D7). Results

[2] = molecular target: T1, α-galactosidase (Coffea arabica, UniProt Q42656); test: Enzymatic stability of α-Gal-CF2-Ser pseudo-glycosidic bond with α-galactosidase; assay type: in vitro ADME; details: 24 h at 37° C.; for hydrolysis after incubation with α-galactosidase, mass spectra with vs without enzyme: ammonium acetate buffer 10 mM pH 7, α-galactosidase 2.25 U, MS; for cleavage by α-galactosidase, F-NMR analysis: ammonium acetate buffer pH 7, α-galactosidase 2.25 U
T1 construct: purchased Sigma G8507
Experimental: The enzymatic stability has been performed with compounds Cd1, Cd2, Dd1 and Dd2 according to the invention and compound F was used as a reference compound to control the efficacy of the α-galactosidase. All the compounds have been treated with α-galactosidase. The stability of compounds Cd1, Cd2, Dd1 and Dd2 has been assessed by MS analysis after incubation with α-galactosidase. The procedure has been adapted from Maljaars et al. J. Comb. Chem. 2006, 8, 812-819.
Test compound Cd1 ([…], 1.8 mg) in 0.75 mL ammonium acetate buffer (10 mM, pH 7) was kept 24 h at 37° C. in the presence and absence of α-galactosidase (2.25 U, 41 μL of a 3.7 mg·mL^−1 suspension in ammonium sulphate (G8507 sigma, 14.7 U/mg)). 300 μL of the samples were filtered through a 3-kDa-cutoff centrifugal filter (Millipore) and the filter was washed with H2O (2×300 μL). The resultant solutions were diluted in water/methanol 1:1 (3 μL in 1 mL);
Test compound Cd2 ([…], 5.3 mg) has been treated in the presence and absence of α-galactosidase following the same process.
The samples of compound Cd1 and Cd2 in presence of α-galactosidase have been analyzed by mass spectrometry and their spectra compared to the mass spectra of compound Cd1 and Cd2 in absence of α-galactosidase.
The same procedure was applied to compound Dd1 ([…], 2.6 mg) and Dd2 ([…], 2.6 mg).
In parallel, p-nitrophenyl-α-galactoside (compound F, 6 μmol, 1.8 mg) in 0.75 mL of ammonium acetate buffer (10 mM, pH 7) was kept 24 h at 37° C. in the presence and absence of α-galactosidase 2.25 U, 41 μL of a 3.7 mg·mL^−1 suspension in ammonium sulphate ((G8507 sigma) 14.7 U/mg). The OD of the two samples was measured at 420 nm to verify that the α-galactosidase is working and that degradation occurs on compound F (OD420 with α-galactosidase=1.6303/OD420 without α-galactosidase=0.0124).

[3] = molecular target: T2, β-galactosidase (Escherichia coli, UniProt P00722); assay type: in vitro ADME; details: 24 h at 37° C.; for hydrolysis after incubation with β-galactosidase, mass spectra with vs without enzyme: ammonium acetate buffer 10 mM pH 7, β-galactosidase 4.5 U, MS (ESI)
T2 construct: purchased Sigma 48275
Experimental: The enzymatic stability has been performed with compound Ad1 and Ad2 according to the invention and compound B used as a reference compound to control the efficacy of the β-galactosidase. Both compounds have been treated with β-galactosidase. The stability of compound Ad1 and Ad2 has been assessed by mass spectrum (MS) analysis after incubation with β-galactosidase. The samples have been injected and ionized by electrospray (ES) (in positive and negative mode). The procedure has been adapted from Maljaars et al. J. Comb. Chem. 2006, 8, 812-819.
Test compound Ad1 (12 μmol, 5.3 mg) in 1.5 mL ammonium acetate buffer (10 mM, pH 7) was kept 24 h at 37° C. in the presence and absence of β-galactosidase (4.5 U, 32 μL of a 1 mg·mL^−1 solution in ammonium acetate buffer, (48275 sigma, 140 U per mg)). 300 μL of the sample was filtered through a 3-kDa-cutoff centrifugal filter (Millipore), and the filter was washed with H2O (2×300 μL). The obtained solutions were diluted in water/methanol 1:1 (3 μL in 1 mL).
Test compound Ad2 (12 μmol, 5.3 mg) has been treated in the presence and absence of β-galactosidase following the same process.
These samples of compound Ad1 and Ad2 in presence of β-galactosidase have been submitted to mass spectra and compared to the mass spectra of compound Ad1 and Ad2 in absence of β-galactosidase.
The two samples were also analyzed by F-NMR to confirm that the test compound Ad1 and Ad2 were not cleaved by the β-galactosidase.
In parallel, p-nitrophenyl-β-galactoside (compound B, 12 μmol, 3.6 mg) in 1.5 mL ammonium acetate buffer (10 mM, pH 7) was kept 24 h at 37° C. in the presence and absence of β-galactosidase (4.5 U, 32 μL of a 1 mg·mL^−1 solution in ammonium acetate buffer (48275 sigma, 140 U per mg)).
The optical density (OD) of the two samples was measured at 420 nm to verify that the β-galactosidase is working and that degradation occurs on compound B (OD420 with β-galactosidase=1.5786/OD420 without β-galactosidase=0.0465).

[4] = ammonium acetate buffer pH 7, β-galactosidase 4.5 U

T2 sequence (P00722 2-1024): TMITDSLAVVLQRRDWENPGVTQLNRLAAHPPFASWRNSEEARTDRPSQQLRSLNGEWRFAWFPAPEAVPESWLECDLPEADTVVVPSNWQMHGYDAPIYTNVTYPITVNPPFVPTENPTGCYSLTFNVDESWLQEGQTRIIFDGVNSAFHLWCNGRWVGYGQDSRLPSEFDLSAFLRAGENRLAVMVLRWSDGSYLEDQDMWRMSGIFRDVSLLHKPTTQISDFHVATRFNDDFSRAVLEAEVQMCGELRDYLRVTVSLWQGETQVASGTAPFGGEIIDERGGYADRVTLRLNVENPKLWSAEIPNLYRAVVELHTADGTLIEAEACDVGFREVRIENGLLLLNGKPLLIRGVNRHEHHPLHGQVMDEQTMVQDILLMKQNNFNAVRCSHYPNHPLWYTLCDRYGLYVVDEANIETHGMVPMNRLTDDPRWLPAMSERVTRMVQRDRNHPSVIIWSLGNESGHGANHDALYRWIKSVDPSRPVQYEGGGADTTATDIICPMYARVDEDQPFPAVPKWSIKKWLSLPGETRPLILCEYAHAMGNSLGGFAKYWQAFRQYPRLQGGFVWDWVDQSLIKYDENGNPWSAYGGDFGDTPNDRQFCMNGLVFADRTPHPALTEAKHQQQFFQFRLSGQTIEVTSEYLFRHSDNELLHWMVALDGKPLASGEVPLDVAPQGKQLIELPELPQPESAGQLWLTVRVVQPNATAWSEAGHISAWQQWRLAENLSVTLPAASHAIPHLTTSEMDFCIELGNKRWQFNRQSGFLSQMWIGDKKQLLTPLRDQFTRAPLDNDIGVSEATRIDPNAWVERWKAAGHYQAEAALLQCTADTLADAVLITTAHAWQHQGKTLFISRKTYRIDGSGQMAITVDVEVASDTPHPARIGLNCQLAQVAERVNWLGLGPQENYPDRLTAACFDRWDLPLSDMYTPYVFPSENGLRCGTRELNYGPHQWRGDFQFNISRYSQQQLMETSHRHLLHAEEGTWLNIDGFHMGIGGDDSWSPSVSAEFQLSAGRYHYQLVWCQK
T1 sequence (Q42656 16-378): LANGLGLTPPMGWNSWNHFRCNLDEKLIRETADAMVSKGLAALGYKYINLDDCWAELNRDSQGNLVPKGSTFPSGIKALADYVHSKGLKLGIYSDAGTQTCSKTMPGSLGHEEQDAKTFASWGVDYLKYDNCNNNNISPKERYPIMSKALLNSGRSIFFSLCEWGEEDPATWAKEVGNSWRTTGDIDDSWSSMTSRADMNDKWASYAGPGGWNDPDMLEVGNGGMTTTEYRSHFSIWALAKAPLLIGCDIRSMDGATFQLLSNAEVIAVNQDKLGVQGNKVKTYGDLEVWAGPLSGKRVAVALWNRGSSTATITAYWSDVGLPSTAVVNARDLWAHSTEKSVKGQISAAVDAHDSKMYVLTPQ

For `C[C@H](NC(=O)[C@H](C)NC(=O)C(N)CC(F)(F)[C@H]1O[C@H](CO)[C@H](O)[C@H](O)[C@H]1O)C(=O)O` (single isomer, unassigned) [13(b)αd1], the “effect on skin fibroblasts under unfavorable conditions for growth” value [1] was “preservative effect” and the viability at 5000 µg/mL ([1]; Homo sapiens, CCD-27Sk, 168 h, 5 mg/ml in starvation (serum free) medium, up to 7 days of incubation, Trypan blue exclusion, read-out: fibroblast viability) was roughly 95%.
With `C[C@H](NC(=O)[C@H](C)NC(=O)C(N)CC(F)(F)[C@H]1O[C@H](CO)[C@H](O)[C@H](O)[C@H]1O)C(=O)O` (single isomer, unassigned) [13(b)αd2] the “effect on skin fibroblasts under unfavorable conditions for growth” value [1] was “preservative effect”.
In the case of `C[C@H](NC(=O)[C@H](C)NC(=O)C(N)CC(F)(F)[C@H]1O[C@H](CO)[C@H](O)[C@H](O)[C@H]1O)C(=O)O` (single isomer, unassigned) [Dd1], the “hydrolysis after incubation with α-galactosidase, mass spectra with vs without enzyme” value [2] is reported as “no hydrolysis occurs” and the “cleavage by α-galactosidase, F-NMR analysis” value (“cleavage by α-galactosidase” for short) [2] is reported as “not cleaved”.
In the case of `C[C@H](NC(=O)[C@H](C)NC(=O)C(N)CC(F)(F)[C@H]1O[C@H](CO)[C@H](O)[C@H](O)[C@H]1O)C(=O)O` (single isomer, unassigned) [Dd2], the “hydrolysis after incubation with α-galactosidase, mass spectra with vs without enzyme” value [2] is reported as “no hydrolysis occurs” and the “cleavage by α-galactosidase” value [2] is reported as “not cleaved”.
For `C[C@H](NC(=O)[C@H](C)NC(=O)C(N)CC(F)(F)[C@@H]1O[C@H](CO)[C@H](O)[C@H](O)[C@H]1O)C(=O)O` (stereo partly shown) [Ad1], the “hydrolysis after incubation with β-galactosidase, mass spectra with vs without enzyme” value [3] was “no hydrolysis occurs” and the “cleavage by β-galactosidase, F-NMR analysis” value [3, 4] was “not cleaved”.
For `C[C@H](NC(=O)[C@H](C)NC(=O)C(N)CC(F)(F)[C@@H]1O[C@H](CO)[C@H](O)[C@H](O)[C@H]1O)C(=O)O` (stereo partly shown) [Ad2], the “hydrolysis after incubation with β-galactosidase, mass spectra with vs without enzyme” value [3] was “no hydrolysis occurs” and the “cleavage by β-galactosidase, F-NMR analysis” value [3, 4] was “not cleaved”.
In the case of `O=[N+]([O-])c1ccc(O[C@@H]2O[C@H](CO)[C@H](O)[C@H](O)[C@H]2O)cc1` [B, p-nitrophenyl-β-galactoside, reference compound], the “visual observation in the presence of β-galactosidase (decomposition)” value [3, 4] is reported as “yellow coloration was observed”.
In the case of `NC(CC(F)(F)[C@H]1O[C@H](CO)[C@H](O)[C@H](O)[C@H]1O)C(=O)O` (stereo partly shown) [Cd1], the “hydrolysis after incubation with α-galactosidase, mass spectra with vs without enzyme” value [2] is reported as “no hydrolysis occurs” and the “cleavage by α-galactosidase” value [2] is reported as “not cleaved”.
With `NC(CC(F)(F)[C@H]1O[C@H](CO)[C@H](O)[C@H](O)[C@H]1O)C(=O)O` (stereo partly shown) [Cd2] the “hydrolysis after incubation with α-galactosidase, mass spectra with vs without enzyme” value [2] was “no hydrolysis occurs” and the “cleavage by α-galactosidase” value [2] was “not cleaved”.
